Test results: ChEMBL document CHEMBL1134612, “A structure-based design approach to the development of novel, reversible AChE inhibitors” (J Med Chem, 2001)

Biological target: Acetylcholinesterase (Torpedo californica, UniProt P04058)
Sequence (P04058 whole entry): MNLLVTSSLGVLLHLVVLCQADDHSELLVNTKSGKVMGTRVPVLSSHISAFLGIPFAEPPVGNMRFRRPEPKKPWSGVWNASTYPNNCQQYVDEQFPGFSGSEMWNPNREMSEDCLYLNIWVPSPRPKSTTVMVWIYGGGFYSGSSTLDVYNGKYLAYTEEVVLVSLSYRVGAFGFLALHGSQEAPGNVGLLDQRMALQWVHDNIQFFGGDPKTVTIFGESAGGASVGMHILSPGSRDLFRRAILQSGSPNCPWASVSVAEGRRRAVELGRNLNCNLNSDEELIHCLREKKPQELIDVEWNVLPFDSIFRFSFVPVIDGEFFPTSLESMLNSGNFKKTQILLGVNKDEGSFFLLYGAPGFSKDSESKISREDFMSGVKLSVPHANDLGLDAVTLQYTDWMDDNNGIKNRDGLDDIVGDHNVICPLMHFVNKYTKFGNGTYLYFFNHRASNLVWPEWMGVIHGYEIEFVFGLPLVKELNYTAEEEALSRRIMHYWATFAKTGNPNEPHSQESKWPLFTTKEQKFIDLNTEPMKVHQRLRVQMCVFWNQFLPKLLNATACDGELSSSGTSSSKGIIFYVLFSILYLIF
Description: Inhibition of activity against Torpedo Ray acetylcholinesterase.

Q: How did the IC50 turn out when Cc1nc2cccc(F)c2c(N)c1COCc1ccccc1 was run?
A: The IC50 was 2000 nM.

Q: With Cc1nc2cccc(Cl)c2c(N)c1COCc1cccc(C(=O)C(F)(F)F)c1 as the molecule, how does the IC50 read?
A: Its IC50 is 5.1 nM.

Q: Which IC50 does the source give for Cc1nc2cccc(F)c2c(N)c1CSCc1cccc(C(O)C(F)(F)F)c1 (stereo unspecified) here?
A: The IC50 was 11000 nM.

Q: How did the IC50 turn out when O=C(c1cccc(CBr)c1)C(F)(F)F was run?
A: The IC50 was 360 nM.

Q: How did the IC50 turn out when Cc1nc2cccc(F)c2c(N)c1CNC1(C(F)(F)F)CCC(=O)O1 (stereo unspecified) was run?
A: Its IC50 is 14000 nM.

Q: Cc1nc2cccc(F)c2c(N)c1CSC1(C(F)(F)F)CCCO1 (stereo unspecified) was tested. Which IC50 did it give?
A: Its IC50 is 18 nM.

Q: With Cc1nc2cccc(F)c2c(N)c1COCc1cccc(C(=O)C(F)(F)F)c1 as the molecule, how does the IC50 read?
A: Its IC50 is 3.8 nM.

Q: CCOC(=O)c1c(C)nc2cccc(F)c2c1N was tested. Which IC50 did it give?
A: Its IC50 is 2600 nM.

Q: With Cc1nc2cccc(F)c2c(N)c1CN as the molecule, how does the IC50 read?
A: The IC50 was 1900 nM.

Q: For O=C(c1ccc(CNc2c3c(nc4cccc(Cl)c24)CCCCC3)s1)C(F)(F)F, which IC50 is on record?
A: Its IC50 is 12 nM.

Q: With OC(O)(CCCCCNc1c2c(nc3cccc(Cl)c13)CCCCC2)C(F)(F)F as the molecule, how does the IC50 read?
A: Its IC50 is 36 nM.

Q: For CC(=O)c1cccc(CSCc2c(C)nc3cccc(F)c3c2N)c1, which IC50 is on record?
A: The IC50 was 15000 nM.

Q: Which IC50 does the source give for Cc1nc2ccccc2c(N)c1COCc1cccc(C(=O)C(F)(F)F)c1 here?
A: Its IC50 is 3 nM.

Q: With Cc1nc2cccc(Cl)c2c(N)c1CNC1(C(F)(F)F)CCC(=O)O1 (stereo unspecified) as the molecule, how does the IC50 read?
A: Its IC50 is 7200 nM.

Q: Nc1c2c(nc3cccc(Cl)c13)CCCCC2 was tested. Which IC50 did it give?
A: Its IC50 is 2.4 nM.

Q: For Cc1nc2cccc(F)c2c(N)c1CSCc1cccc(C(=O)C(F)(F)F)c1, which IC50 is on record?
A: Its IC50 is 3 nM.
